Test results taken from patent US8193203B2, “Bicyclic compounds having activity at the CXCR4 receptor” (Allergan, Inc., priority 2008, dated 2012).

Target: T1, human CXCR4 receptor (Homo sapiens, UniProt P61073)
T1 construct: expressed in transfected cells
Test: Measurement of intracellular Ca+2 responses (FLIPR), antagonism of the SDF-1α response
Format: cell-based
Details: for IC50: HEK-Gqi5 cells stably expressing human CXCR4, Fluo-4 FLIPR, antagonism of SDF-1α 1.9 nM (EC65); for CXCR4 (% Inh): percent antagonism of SDF-1α 1.9 nM (EC65) response, HEK-Gqi5 human CXCR4 cells, value in brackets
Method: Measurement of Intracellular Ca^+2 Responses for CXCR4 Compounds
HEK-Gqi5 cells stably expressing the human CXCR4 receptor were utilized for these studies. The growth media for the CXCR4 receptor expressing cell line was DMEM high glucose medium supplemented with 10% fetal bovine serum (FBS), 1% antibiotic-antimycotic, 50 ug/ml hygromycin B, and 400 μg/ml geneticin. Ten thousand cells per well were plated into 384-well poly-D-lysine coated plates one day prior to use. On the day of the experiment, the cells were washed twice with Hank's Balanced Salt Solution supplemented with 20 mM hepes (HBSS/hepes buffer). The cells were then dye loaded with 2 uM Fluo-4 diluted in the HBSS/Hepes buffer and incubated at 37° C. for 40 minutes. Extracellular dye was removed by washing the cell plates four times prior to placing the plates in the FLIPR (Fluorometric Imaging Plate Reader, Molecular Devices). Ligands were diluted in HBSS/Hepes buffer and prepared in 384-well microplates. The positive control, stromal-cell derived factor-1 (SDF-1α), was diluted in HBSS/Hepes buffer with 4 mg/ml fatty acid free bovine serum albumin. Two drug additions were made by the FLIPR. The first drug addition was the test drug in concentrations ranging from 2.44 nM to 40,000 nM. After this addition, fluorescent measurements were taken. Any calcium release in response to this drug addition represents agonist activity of the compounds. The second drug addition was SDF-1α at a final concentration of 1.9 nM (EC65). Fluorescence measurements were also taken after this second drug addition and were used to determine the ability of the test compounds to antagonize the SDF-1α response. Results were expressed as EC50 and efficacy values, as well as IC50 and percent antagonism values. As controls, SDF-1α (CXCR4 agonist) and AMD3100 (CXCR4 antagonist) dose-response curves were also determined in each study.

T1 sequence (P61073 whole entry): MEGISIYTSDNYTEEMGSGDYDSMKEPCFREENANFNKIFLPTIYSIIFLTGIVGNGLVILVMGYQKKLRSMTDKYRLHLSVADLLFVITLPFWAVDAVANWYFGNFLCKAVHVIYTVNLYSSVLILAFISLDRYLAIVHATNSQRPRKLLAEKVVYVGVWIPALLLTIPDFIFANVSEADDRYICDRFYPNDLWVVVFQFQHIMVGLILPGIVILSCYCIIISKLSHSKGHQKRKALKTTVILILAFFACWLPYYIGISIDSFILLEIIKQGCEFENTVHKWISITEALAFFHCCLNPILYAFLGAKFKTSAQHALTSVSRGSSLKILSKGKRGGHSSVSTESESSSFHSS

| Compound | IC50 (values in nM) [nM] | CXCR4 (% Inh) [%] | IC50 (values given in μM) [nM] |
| --- | --- | --- | --- |
| CCN(CC)CCCNc1nc(NC2CCN(Cc3ccccc3N(C)C)CC2)c2cc(OC)c(OC)cc2n1 [Compound 30, N2-(3-(Diethylamino)propyl)-N4-(1-(2-(dimethylamino)benzyl)piperidin-4-yl)-6,7-dimethoxyquinazoline-2,4-diamine] | 270 | 100 |  |
| CCN(CC)C(=O)CCNc1nc(NC2CCN(Cc3ccccc3N(C)C)CC2)c2cc(OC)c(OC)cc2n1 [Compound 31] |  | 92 | 2400 |
| CCN(CC)CCNc1nc(NC2CCN(Cc3ccccc3N(C)C)CC2)c2cc(OC)c(OC)cc2n1 [Compound 32] | 343 | 90 |  |
| COc1cc2nc(NCCCN3CCCC3)nc(NC3CCN(Cc4ccccc4N(C)C)CC3)c2cc1OC [Compound 33] | 617 | 93 |  |
| CCN(CC)CCCNc1nc(NC2CCN(Cc3ccccc3N(C)C)CC2)c2ccccc2n1 [Compound 35, N2-(3-(Diethylamino)propyl)-N4-(1-(2-(dimethylamino)benzyl)piperidin-4-yl)quinazoline-2,4-diamine] | 330 | 90 |  |
| CCN(CC)CCNc1nc(NC2CCN(Cc3ccccc3N(C)C)CC2)c2ccccc2n1 [Compound 36, N2-(2-(Diethylamino)ethyl)-N4-(1-(2-(dimethylamino)benzyl)piperidin-4-yl)quinazoline-2,4-diamine] | 800 | 90 |  |
| CCN(CC)CCNc1nc(NC2CCN(Cc3c(OC)cccc3N(C)C)CC2)c2cc(OC)c(OC)cc2n1 [Compound 41, N2-(2-(Diethylamino)ethyl)-N4-(1-(2-(dimethylamino)-6-methoxybenzyl)piperidin-4-yl)-6,7-dimethoxyquinazoline-2,4-diamine] | 360 | 100 |  |
| CCN(CC)CCCNc1nc(NC2CCN(Cc3c(OC)cccc3N(C)C)CC2)c2cc(OC)c(OC)cc2n1 [Compound 42, N2-(3-(Diethylamino)propyl)-N4-(1-(2-(dimethylamino)-6-methoxybenzyl)piperidin-4-yl)-6,7-dimethoxyquinazoline-2,4-diamine] | 179 | 98 |  |
| CCN(CC)CCCNc1nc(NC2CCN(Cc3c(OC)cccc3N(C)C)CC2)c2ccccc2n1 [Compound 48, N2-(3-(Diethylamino)propyl)-N4-(1-(2-(dimethylamino)-6-methoxybenzyl)piperidin-4-yl)quinazoline-2,4-diamine] | 150 | 100 |  |
| CCN(CC)CCCNc1nc(NC2CCN(Cc3ccccc3N3CCCCC3)CC2)c2cc(OC)c(OC)cc2n1 [Compound 50] |  | 86 | 6700 |
| CCN(CC)CCCNc1nc(NC2CCN(Cc3ccccc3N3CCCC3)CC2)c2cc(OC)c(OC)cc2n1 [Compound 51] |  | 92 | 1100 |
| COc1cc2nc(N3CCCCCC3)nc(NC3CCN(Cc4c(OC)cccc4N(C)C)CC3)c2cc1OC [Compound 52, 2-(Azepan-1-yl)-N-(1-(2-(dimethylamino)-6-methoxybenzyl)piperidin-4-yl)-6,7-dimethoxyquinazolin-4-amine] | 730 | 90 |  |
| CCN(CC)CCCNc1nc(NC2CCN(Cc3ccccc3[N+](=O)[O-])CC2)c2cc(OC)c(OC)cc2n1 [Compound 65, N2-(3-(Diethylamino)propyl)-6,7-dimethoxy-N4-(1-(2-nitrobenzyl)piperidin-4-yl)quinazoline-2,4-diamine] |  | 93 | 4900 |
| CCN(CC)CCCCNc1nc(NC2CCN(Cc3c(OC)cccc3N(C)C)CC2)c2ccccc2n1 [Compound 66, N2-(4-(Diethylamino)butyl)-N4-(1-(2-(dimethylamino)-6-methoxybenzyl)piperidin-4-yl)quinazoline-2,4-diamine] | 200 | 93 |  |
| CCN(CC)CCCCCNc1nc(NC2CCN(Cc3c(OC)cccc3N(C)C)CC2)c2ccccc2n1 [Compound 67, N2-(5-(Diethylamino)pentyl)-N4-(1-(2-(dimethylamino)-6-methoxybenzyl)piperidin-4-yl)quinazoline-2,4-diamine] |  | 88 | 1900 |
| COc1cccc(N(C)C)c1CN1CCC(Nc2nc(NCCCN(C)C)nc3ccccc23)CC1 [Compound 68, N4-(1-(2-(Dimethylamino)-6-methoxybenzyl)piperidin-4-yl)-N2-(3-(dimethylamino)propyl)quinazoline-2,4-diamine] | 41 | 95 |  |
| COc1cc2nc(NCCCN(C)C)nc(NC3CCN(Cc4c(OCCN(C)C)cccc4N(C)C)CC3)c2cc1OC [Compound 76, N4-(1-(2-(Dimethylamino)-6-(2-(dimethylamino)ethoxy)benzyl)piperidin-4-yl)-N-2-(3-(dimethylamino)propyl)-6,7-dimethoxyquinazoline-2,4-diamine] | 19 | 94 |  |
| COc1cc2nc(NCCCN(C)C)nc(NC3CCN(Cc4c(OC)cccc4N(C)C)CC3)c2cc1OC [Compound 78] | 283 | 100 |  |
| COc1cccc(N(C)C)c1CN1CCC(Nc2nc(NCCCN)nc3ccccc23)CC1 [Compound 80, N˜2˜-(3-Aminopropyl)-N˜4˜-{1-[2-(dimethylamino)-6-methoxybenzyl]piperidin-4-yl}quinazoline-2,4-diamine] | 130 | 94 |  |
| CCOP(=O)(CCCNc1nc(NC2CCN(Cc3c(OC)cccc3N(C)C)CC2)c2ccccc2n1)OCC [Compound 81, Diethyl 3-(4-(1-(2-(Dimethylamino)-6-methoxybenzyl)piperidin-4-ylamino)quinazolin-2-ylamino)propylphosphonate] |  | 99 | 1600 |
| COc1cccc(N(C)C)c1CN1CCC(Nc2nc(NCc3ccccn3)nc3ccccc23)CC1 [Compound 84, N4-(1-(2-(Dimethylamino)-6-methoxybenzyl)piperidin-4-yl)-N2-(pyridin-2-ylmethyl)quinazoline-2,4-diamine] | 574 | 95 |  |
| COc1cccc(N(C)C)c1CN1CCC(Nc2nc(N3CCCC(C(N)=O)C3)nc3ccccc23)CC1 (stereo not drawn) [Compound 85, 1-(4-(1-(2-(Dimethylamino)-6-methoxybenzyl)piperidin-4-ylamino)quinazolin-2-yl)piperidine-3-carboxamide] |  | 93 | 4900 |
| COc1cccc(N(C)C)c1CN1CCC(Nc2nc(N3CCN(C(C)=O)CC3)nc3ccccc23)CC1 [Compound 86, 1-(4-(4-(1-(2-(Dimethylamino)-6-methoxybenzyl)piperidin-4-ylamino)quinazolin-2-yl)piperazin-1-yl)ethanone] |  | 86 | 3500 |
| COCCCNc1nc(NC2CCN(Cc3c(OC)cccc3N(C)C)CC2)c2ccccc2n1 [Compound 87, N4-(1-(2-(Dimethylamino)-6-methoxybenzyl)piperidin-4-yl)-N2-(3-methoxypropyl)quinazoline-2,4-diamine] | 810 | 96 |  |
| COc1cccc(N(C)C)c1CN1CCC(Nc2nc(N3CCC3)nc3ccccc23)CC1 [Compound 88, 2-(Azetidin-1-yl)-N-(1-(2-(dimethylamino)-6-methoxybenzyl)piperidin-4-yl)quinazolin-4-amine] |  | 94 | 1900 |
| COc1cccc(N(C)C)c1CN1CCC(Nc2nc(NCCCN3CCCC3=O)nc3ccccc23)CC1 [Compound 89, 1-(3-(4-(1-(2-(Dimethylamino)-6-methoxybenzyl)piperidin-4-ylamino)quinazolin-2-ylamino)propyl)pyrrolidin-2-one] |  | 92 | 1400 |
| COc1cccc(N(C)C)c1CN1CCC(Nc2nc(N(CCO)C(C)=O)nc3ccccc23)CC1 [Compound 90, N-(4-(1-(2-(Dimethylamino)-6-methoxybenzyl)piperidin-4-ylamino)quinazolin-2-yl)-N-(2-hydroxyethyl)acetamide] |  | 93 | 1500 |
| CCCCNc1nc(NC2CCN(Cc3c(OC)cccc3N(C)C)CC2)c2ccccc2n1 [Compound 91, N2-Butyl-N4-(1-(2-(dimethylamino)-6-methoxybenzyl)piperidin-4-yl)quinazoline-2,4-diamine] |  | 80 | 2000 |
| COc1cccc(N(C)C)c1CN1CCC(Nc2nc(N3CC3)nc3ccccc23)CC1 [Compound 92, 2-(Aziridin-1-yl)-N-(1-(2-(dimethylamino)-6-methoxybenzyl)piperidin-4-yl)quinazolin-4-amine] |  | 75 | 2100 |
| COc1cccc(N(C)C)c1CN1CCC(Nc2nc(NCC(F)(F)F)nc3ccccc23)CC1 [Compound 93, N4-(1-(2-(Dimethylamino)-6-methoxybenzyl)piperidin-4-yl)-N2-(2,2,2-trifluoroethyl)quinazoline-2,4-diamine] |  | 79 | 4300 |
